Test results reported in the NIST ThermoML archive (doi:10.1021/acs.jced.8b00011).
“And” between values parts separate entries of the source, which are not always exact repeats. Equal entries are not always repeated. ± gives the expanded uncertainty stated by the source.

Details: Liquid; for electrical conductivity: electrochemical impedance spectroscopy; for mass density: Vibrating tube method

SMILES: CCCCC[P+](CC)(CC)CC.O=S(=O)([N-]S(=O)(=O)C(F)(F)F)C(F)(F)F
- viscosity (298.15 K, 60200 kPa, Falling or rolling sphere viscometry): 188.2 ± 8.8 mPa·s
- electrical conductivity (298.15 K, 76900 kPa, Frequency=0 MHz): 0.0691 ± 0.0014 S/m
- viscosity (298.15 K, 80100 kPa, Falling or rolling sphere viscometry): 237.6 ± 13 mPa·s
- electrical conductivity (298.15 K, 99300 kPa, Frequency=0 MHz): 0.0551 ± 0.0011 S/m
- viscosity (298.15 K, 100600 kPa, Falling or rolling sphere viscometry): 299.8 ± 18 mPa·s
- viscosity (298.15 K, 120600 kPa, Falling or rolling sphere viscometry): 374.6 ± 26 mPa·s
- viscosity (298.15 K, 120900 kPa, Falling or rolling sphere viscometry): 375.1 ± 26 mPa·s
- electrical conductivity (298.15 K, 126100 kPa, Frequency=0 MHz): 0.0413 ± 0.00083 S/m
- viscosity (298.15 K, 140500 kPa, Falling or rolling sphere viscometry): 464.2 ± 35 mPa·s
- electrical conductivity (298.15 K, 149100 kPa, Frequency=0 MHz): 0.0333 ± 0.00067 S/m
- viscosity (298.15 K, 160800 kPa, Falling or rolling sphere viscometry): 575.1 ± 48 mPa·s
- viscosity (298.15 K, 180200 kPa, Falling or rolling sphere viscometry): 703.8 ± 63 mPa·s
- viscosity (298.15 K, 199500 kPa, Falling or rolling sphere viscometry): 855.3 ± 82 mPa·s
- electrical conductivity (298.15 K, 225400 kPa, Frequency=0 MHz): 0.0159 ± 0.00032 S/m
- electrical conductivity (298.15 K, 249800 kPa, Frequency=0 MHz): 0.0127 ± 0.00026 S/m
- electrical conductivity (298.16 K, 600 kPa, Frequency=0 MHz): 0.164 ± 0.0034 S/m
- electrical conductivity (298.16 K, 1600 kPa, Frequency=0 MHz): 0.162 ± 0.0032 S/m
- electrical conductivity (298.16 K, 201000 kPa, Frequency=0 MHz): 0.0201 ± 0.0004 S/m
- viscosity (303.15 K, 100 kPa, Concentric cylinders viscometry): 67.86 ± 1.5 mPa·s
- viscosity (303.15 K, 100 kPa, Falling or rolling sphere viscometry): 68.41 ± 2.4 mPa·s
- mass density (303.15 K, 100 kPa): 1298.32 ± 1.3 kg/m3 [middle of 6 runs]
- electrical conductivity (303.15 K, 101.33 kPa): 0.208 S/m and 0.207 S/m
- viscosity (303.15 K, 700 kPa, Falling or rolling sphere viscometry): 68.43 ± 2.3 mPa·s
- mass density (303.15 K, 1000 kPa): 1298.99 ± 1.3 kg/m3
- mass density (303.15 K, 5000 kPa): 1301.97 ± 1.3 kg/m3
- mass density (303.15 K, 10000 kPa): 1305.55 ± 1.3 kg/m3
- viscosity (303.15 K, 10600 kPa, Falling or rolling sphere viscometry): 78.1 ± 2.1 mPa·s
- mass density (303.15 K, 15000 kPa): 1309.08 ± 1.4 kg/m3
- mass density (303.15 K, 20000 kPa): 1312.5 ± 1.4 kg/m3
- viscosity (303.15 K, 20600 kPa, Falling or rolling sphere viscometry): 88.77 ± 2.6 mPa·s
- mass density (303.15 K, 25000 kPa): 1315.86 ± 1.4 kg/m3
- mass density (303.15 K, 30000 kPa): 1319.11 ± 1.4 kg/m3
- viscosity (303.15 K, 30400 kPa, Falling or rolling sphere viscometry): 100.3 ± 3.1 mPa·s
- mass density (303.15 K, 35000 kPa): 1322.31 ± 1.5 kg/m3
- mass density (303.15 K, 40000 kPa): 1325.42 ± 1.5 kg/m3
- viscosity (303.15 K, 40600 kPa, Falling or rolling sphere viscometry): 113.6 ± 3.9 mPa·s
- mass density (303.15 K, 45000 kPa): 1328.53 ± 1.6 kg/m3
- mass density (303.15 K, 50000 kPa): 1331.53 ± 1.6 kg/m3
- viscosity (303.15 K, 50700 kPa, Falling or rolling sphere viscometry): 128 ± 4.7 mPa·s
- viscosity (303.15 K, 60800 kPa, Falling or rolling sphere viscometry): 144.1 ± 5.7 mPa·s
- viscosity (303.15 K, 80300 kPa, Falling or rolling sphere viscometry): 179.8 ± 8.2 mPa·s
- viscosity (303.15 K, 100100 kPa, Falling or rolling sphere viscometry): 223.2 ± 12 mPa·s
- electrical conductivity (308.15 K, 101.33 kPa): 0.256 S/m and 0.255 S/m
- viscosity (313.15 K, 100 kPa, Concentric cylinders viscometry): 43.97 ± 0.99 mPa·s
- viscosity (313.15 K, 100 kPa, Falling or rolling sphere viscometry): 44.35 ± 2.3 mPa·s [middle of 5 runs]
- mass density (313.15 K, 100 kPa): 1290.13 ± 1.8 kg/m3 [middle of 6 runs]
- electrical conductivity (313.15 K, 101.33 kPa): 0.31 S/m
- viscosity (313.15 K, 700 kPa, Falling or rolling sphere viscometry): 44.4 ± 2.8 mPa·s
- mass density (313.15 K, 1000 kPa): 1291.1 ± 1.3 kg/m3
- mass density (313.15 K, 5000 kPa): 1294.18 ± 1.3 kg/m3
- mass density (313.15 K, 10000 kPa): 1297.91 ± 1.3 kg/m3
- viscosity (313.15 K, 10600 kPa, Falling or rolling sphere viscometry): 50.22 ± 1.1 mPa·s
- mass density (313.15 K, 15000 kPa): 1301.54 ± 1.3 kg/m3
- mass density (313.15 K, 20000 kPa): 1305.07 ± 1.4 kg/m3
- viscosity (313.15 K, 20600 kPa, Falling or rolling sphere viscometry): 56.64 ± 1.3 mPa·s
- mass density (313.15 K, 25000 kPa): 1308.48 ± 1.4 kg/m3
- mass density (313.15 K, 30000 kPa): 1311.85 ± 1.4 kg/m3
- viscosity (313.15 K, 30500 kPa, Falling or rolling sphere viscometry): 63.64 ± 1.5 mPa·s
- mass density (313.15 K, 35000 kPa): 1315.16 ± 1.5 kg/m3
- mass density (313.15 K, 40000 kPa): 1318.37 ± 1.5 kg/m3
- viscosity (313.15 K, 40500 kPa, Falling or rolling sphere viscometry): 71.42 ± 1.8 mPa·s
- mass density (313.15 K, 45000 kPa): 1321.53 ± 1.5 kg/m3
- mass density (313.15 K, 50000 kPa): 1324.64 ± 1.6 kg/m3
- viscosity (313.15 K, 50600 kPa, Falling or rolling sphere viscometry): 79.95 ± 2.2 mPa·s
- viscosity (313.15 K, 60600 kPa, Falling or rolling sphere viscometry): 89.14 ± 2.6 mPa·s
- viscosity (313.15 K, 80300 kPa, Falling or rolling sphere viscometry): 109.9 ± 3.7 mPa·s
- viscosity (313.15 K, 99900 kPa, Falling or rolling sphere viscometry): 134.5 ± 5.1 mPa·s
- electrical conductivity (318.15 K, 101.33 kPa): 0.371 S/m and 0.372 S/m
- electrical conductivity (323.14 K, 800 kPa, Frequency=0 MHz): 0.434 ± 0.0087 S/m
- electrical conductivity (323.14 K, 3200 kPa, Frequency=0 MHz): 0.423 ± 0.0085 S/m
- electrical conductivity (323.14 K, 101600 kPa, Frequency=0 MHz): 0.17 ± 0.0034 S/m
- electrical conductivity (323.14 K, 150900 kPa, Frequency=0 MHz): 0.113 ± 0.0023 S/m
- electrical conductivity (323.14 K, 175500 kPa, Frequency=0 MHz): 0.0922 ± 0.0019 S/m
- viscosity (323.15 K, 100 kPa, Concentric cylinders viscometry): 30.06 ± 0.68 mPa·s
- viscosity (323.15 K, 100 kPa, Falling or rolling sphere viscometry): 29.89 ± 1.3 mPa·s [middle of 5 runs]
- electrical conductivity (323.15 K, 100 kPa, Frequency=0 MHz): 0.437 ± 0.0092 S/m
- mass density (323.15 K, 100 kPa): 1281.76 ± 1.8 kg/m3 [middle of 6 runs]
- electrical conductivity (323.15 K, 101.33 kPa): 0.437 S/m and 0.44 S/m and 0.441 S/m
- viscosity (323.15 K, 700 kPa, Falling or rolling sphere viscometry): 30.1 ± 1.6 mPa·s
- mass density (323.15 K, 1000 kPa): 1282.87 ± 1.3 kg/m3
- electrical conductivity (323.15 K, 2200 kPa, Frequency=0 MHz): 0.427 ± 0.0086 S/m
